Source: patent publication US8519128B2, “Pyripyropene derivatives having an ACAT2-inhibiting activity” (The Kitasato Institute, priority 2007, dated 2013)
Where two headings read alike, the source gives them in different places.

Target: T1, ACAT 2 (Mus musculus, UniProt O88908)
T1 construct: The source of ACAT 2 enzyme used was a membrane fraction derived from mouse liver microsome; from tissue; host or cells: mouse liver (microsome fraction)
T1 sequence (O88908 1-525): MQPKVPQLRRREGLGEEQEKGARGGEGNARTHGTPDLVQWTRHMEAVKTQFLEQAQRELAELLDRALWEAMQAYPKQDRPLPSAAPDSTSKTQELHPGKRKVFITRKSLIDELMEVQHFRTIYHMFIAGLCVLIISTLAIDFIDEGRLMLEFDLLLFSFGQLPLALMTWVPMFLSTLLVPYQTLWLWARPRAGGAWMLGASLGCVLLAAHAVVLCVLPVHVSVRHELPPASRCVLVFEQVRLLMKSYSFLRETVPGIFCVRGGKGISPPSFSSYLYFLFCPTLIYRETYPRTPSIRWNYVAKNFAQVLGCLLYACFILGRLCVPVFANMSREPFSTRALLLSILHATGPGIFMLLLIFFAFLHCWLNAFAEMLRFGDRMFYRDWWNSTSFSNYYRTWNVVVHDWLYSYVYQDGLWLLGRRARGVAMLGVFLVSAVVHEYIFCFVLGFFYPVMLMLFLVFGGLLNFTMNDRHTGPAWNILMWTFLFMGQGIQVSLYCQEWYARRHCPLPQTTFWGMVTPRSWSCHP
Test: ACAT-inhibiting activity, mouse liver microsome membrane fraction, [14C]oleoyl-CoA
Format: biochemical
Description: The source of ACAT 2 enzyme used was a membrane fraction derived from mouse liver microsome. Mouse liver was homogenized in buffer solution A (50 mM Tris-HCl (pH 7.8), 1 mM ethylenediamine tetraacetate, and 1 mM phenylmethanesulfonyl fluoride) using a homogenizer of the Potter type (Tokyo-RIKO). The homogenate was centrifuged at 12000×g, and the supernatant was ultracentrifuged at 100000×g. The sediment was taken as a microsome fraction, and this fraction was adjusted to have a protein concentration of 5 mg/ml using buffer solution A.
The chloroform layer was evaporated to dryness and was used to spot a thin layer chromatography plate (silica gel plate, Merck, 0.5 mm thickness). Elution for separation was carried out using a solvent of hexane/diethyl ether/acetic acid (70:30:1, v/v).

[1] = mouse liver microsome, 5 minutes at 37° C.

Compound	Specific activity: (inhibitory activity of test compound)/(inhibitory activity of pyripyropene A) (relative to pyripyropene A)	IC50 [1] [µM]	Specific activity relative to pyripyropene A (numeric) (relative to pyripyropene A)	IC50 (read-out: Inhibitory activity: Concentration required for 50% inhibition of ACAT 2, mouse liver microsome, 5 minutes at 37° C.) [µM]	IC50 [µM]
7-O-o,m,p-trifluorobenzoyl-7-deacetylpyripyropene A [PRD 110]	+++ (50 > specific activity > 10)			< 0.01	
COc1ccccc1C(=O)O[C@H]1CC2C(C)(COC(C)=O)[C@@H](OC(C)=O)CC[C@]2(C)C2[C@@H](O)c3c(cc(-c4cccnc4)oc3=O)O[C@@]21C (some centres unmarked) [PRD 001, 7-o-methoxybenzoyl-7-deacetylpyripyropene A]	+ (5 > specific activity > 1)	0.01 to 0.1			
COc1cccc(C(=O)O[C@H]2CC3C(C)(COC(C)=O)[C@@H](OC(C)=O)CC[C@]3(C)C3[C@@H](O)c4c(cc(-c5cccnc5)oc4=O)O[C@@]32C)c1 (some centres unmarked) [PRD 002, 7-m-methoxybenzoyl-7-deacetylpyripyropene A]	+++ (50 > specific activity > 10)	0.01 to 0.1			
COc1ccc(C(=O)O[C@H]2CC3C(C)(COC(C)=O)[C@@H](OC(C)=O)CC[C@]3(C)C3[C@@H](O)c4c(cc(-c5cccnc5)oc4=O)O[C@@]32C)cc1 (some centres unmarked) [PRD 003, 7-p-methoxybenzoyl-7-deacetylpyripyropene A]	+++ (50 > specific activity > 10)	< 0.01			
CC(=O)OCC1(C)C(OC(C)=O)CCC2(C)C1CC(OC(=O)c1ccccc1I)C1(C)Oc3cc(-c4cccnc4)oc(=O)c3C(O)C21 (centres unmarked) [PRD 004, 7-o-iodobenzoyl-7-deacetylpyripyropene A]	+++ (50 > specific activity > 10)				
CC(=O)OCC1(C)C2C[C@H](OC(=O)c3cccc(I)c3)[C@@]3(C)Oc4cc(-c5cccnc5)oc(=O)c4[C@H](O)C3[C@@]2(C)CC[C@@H]1OC(C)=O (some centres unmarked) [PRD 005, 7-m-iodobenzoyl-7-deacetylpyripyropene A]	+++ (50 > specific activity > 10)	0.01 to 0.1			
CC(=O)OCC1(C)C2C[C@H](OC(=O)c3ccc(I)cc3)[C@@]3(C)Oc4cc(-c5cccnc5)oc(=O)c4[C@H](O)C3[C@@]2(C)CC[C@@H]1OC(C)=O (some centres unmarked) [PRD 006, 7-p-iodobenzoyl-7-deacetylpyripyropene A]	++ (10 > specific activity > 5)	0.01 to 0.1			
CC(=O)OCC1(C)C2C[C@H](OC(=O)c3ccccc3C)[C@@]3(C)Oc4cc(-c5cccnc5)oc(=O)c4[C@H](O)C3[C@@]2(C)CC[C@@H]1OC(C)=O (some centres unmarked) [PRD 007, 7-o-methylbenzoyl-7-deacetylpyripyropene A]	++++ (100 > specific activity > 50)				
CC(=O)OCC1(C)C2C[C@H](OC(=O)c3cccc(C)c3)[C@@]3(C)Oc4cc(-c5cccnc5)oc(=O)c4[C@H](O)C3[C@@]2(C)CC[C@@H]1OC(C)=O (some centres unmarked) [PRD 008, 7-m-methylbenzoyl-7-deacetylpyripyropene A]	+++ (50 > specific activity > 10)				
CC(=O)OCC1(C)C(OC(C)=O)CCC2(C)C1CC(OC(=O)c1ccc(C)cc1)C1(C)Oc3cc(-c4cccnc4)oc(=O)c3C(O)C21 (centres unmarked) [PRD 009]	++++ (100 > specific activity > 50)				
CC(=O)OCC1(C)C2C[C@H](OC(=O)c3ccccc3Cl)[C@@]3(C)Oc4cc(-c5cccnc5)oc(=O)c4[C@H](O)C3[C@@]2(C)CC[C@@H]1OC(C)=O (some centres unmarked) [PRD 010, 7-o-chlorobenzoyl-7-deacetylpyripyropene A]	+++ (50 > specific activity > 10)	0.01 to 0.1			
CC(=O)OCC1(C)C2C[C@H](OC(=O)c3cccc(Cl)c3)[C@@]3(C)Oc4cc(-c5cccnc5)oc(=O)c4[C@H](O)C3[C@@]2(C)CC[C@@H]1OC(C)=O (some centres unmarked) [PRD 011, 7-m-chlorobenzoyl-7-deacetylpyripyropene A]	+++ (50 > specific activity > 10)	0.01 to 0.1			
CC(=O)OCC1(C)C2C[C@H](OC(=O)c3ccc(Cl)cc3)[C@@]3(C)Oc4cc(-c5cccnc5)oc(=O)c4[C@H](O)C3[C@@]2(C)CC[C@@H]1OC(C)=O (some centres unmarked) [PRD 012, 7-p-chlorobenzoyl-7-deacetylpyripyropene A]	+++ (50 > specific activity > 10)	< 0.01			
C=Cc1cccc(C(=O)O[C@H]2CC3C(C)(COC(C)=O)[C@@H](OC(C)=O)CC[C@]3(C)C3[C@@H](O)c4c(cc(-c5cccnc5)oc4=O)O[C@@]32C)c1 (some centres unmarked) [PRD 013, 7-m-vinylbenzoyl-7-deacetylpyripyropene A]	+++ (50 > specific activity > 10)	< 0.01			
C=Cc1ccc(C(=O)O[C@H]2CC3C(C)(COC(C)=O)[C@@H](OC(C)=O)CC[C@]3(C)C3[C@@H](O)c4c(cc(-c5cccnc5)oc4=O)O[C@@]32C)cc1 (some centres unmarked) [PRD 014, 7-p-vinylbenzoyl-7-deacetylpyripyropene A]	++ (10 > specific activity > 5)				
CC(=O)OCC1(C)C2C[C@H](OC(=O)C3CCCCC3)[C@@]3(C)Oc4cc(-c5cccnc5)oc(=O)c4[C@H](O)C3[C@@]2(C)CC[C@@H]1OC(C)=O (some centres unmarked) [PRD 021, 7-cyclohexanecarboxyl-7-deacetylpyripyropene A]	++++ (100 > specific activity > 50)				< 0.01

Second part, led by results:

Specific activity: (inhibitory activity of test compound)/(inhibitory activity of pyripyropene A) (relative to pyripyropene A)	IC50 [1] [µM]	Specific activity relative to pyripyropene A (numeric) (relative to pyripyropene A)	Compound	IC50 (read-out: Inhibitory activity: Concentration required for 50% inhibition of ACAT 2, mouse liver microsome, 5 minutes at 37° C.) [µM]	IC50 [µM]
+ (5 > specific activity > 1)	0.1 to 1		CC(=O)OCC1(C)C2C[C@H](OC(=O)c3ccccc3C#N)[C@@]3(C)Oc4cc(-c5cccnc5)oc(=O)c4[C@H](O)C3[C@@]2(C)CC[C@@H]1OC(C)=O (some centres unmarked) [PRD 015, 7-o-cyanobenzoyl-7-deacetylpyripyropene A]		
+++ (50 > specific activity > 10)	0.01 to 0.1		CC(=O)OCC1(C)C2C[C@H](OC(=O)c3cccc(C#N)c3)[C@@]3(C)Oc4cc(-c5cccnc5)oc(=O)c4[C@H](O)C3[C@@]2(C)CC[C@@H]1OC(C)=O (some centres unmarked) [PRD 016, 7-m-cyanobenzoyl-7-deacetylpyripyropene A]		
+ (5 > specific activity > 1)	0.01 to 0.1		CSc1ccc(C(=O)O[C@H]2CC3C(C)(COC(C)=O)[C@@H](OC(C)=O)CC[C@]3(C)C3[C@@H](O)c4c(cc(-c5cccnc5)oc4=O)O[C@@]32C)cc1 (some centres unmarked) [PRD 018, 7-p-methylthiobenzoyl-7-deacetylpyripyropene A]		
+++ (50 > specific activity > 10)			CC(=O)OCC1(C)C2C[C@H](OC(=O)c3ccc(Br)cc3)[C@@]3(C)Oc4cc(-c5cccnc5)oc(=O)c4[C@H](O)C3[C@@]2(C)CC[C@@H]1OC(C)=O (some centres unmarked) [PRD 019, 7-p-bromobenzoyl-7-deacetylpyripyropene A]		
+++ (50 > specific activity > 10)	< 0.01		CC(=O)OCC1(C)C2C[C@H](OC(=O)c3ccc(F)cc3)[C@@]3(C)Oc4cc(-c5cccnc5)oc(=O)c4[C@H](O)C3[C@@]2(C)CC[C@@H]1OC(C)=O (some centres unmarked) [PRD 020, 7-p-fluorobenzoyl-7-deacetylpyripyropene A]		
+++ (50 > specific activity > 10)	< 0.01		CC(=O)OCC1(C)C2C[C@H](OC(=O)C34CC5CC(CC(C5)C3)C4)[C@@]3(C)Oc4cc(-c5cccnc5)oc(=O)c4[C@H](O)C3[C@@]2(C)CC[C@@H]1OC(C)=O (some centres unmarked) [PRD 022, 7-1-adamantanecarboxyl-7-deacetylpyripyropene A]		
+++ (50 > specific activity > 10)	0.01 to 0.1		CSc1cccc(C(=O)O[C@H]2CC3C(C)(COC(C)=O)[C@@H](OC(C)=O)CC[C@]3(C)C3[C@@H](O)c4c(cc(-c5cccnc5)oc4=O)O[C@@]32C)c1 (some centres unmarked) [PRD 023, 7-m-methylthiobenzoyl-7-deacetylpyripyropene A]		
+++++ (specific activity > 100)	< 0.01	≥ 100	CC(=O)OCC1(C)C2C[C@H](OC(=O)c3cccc(F)c3)[C@@]3(C)Oc4cc(-c5cccnc5)oc(=O)c4[C@H](O)C3[C@@]2(C)CC[C@@H]1OC(C)=O (some centres unmarked) [PRD 024, 7-m-fluorobenzoyl-7-deacetylpyripyropene A]		
++++ (100 > specific activity > 50)			CCc1ccc(C(=O)O[C@H]2CC3C(C)(COC(C)=O)[C@@H](OC(C)=O)CC[C@]3(C)C3[C@@H](O)c4c(cc(-c5cccnc5)oc4=O)O[C@@]32C)cc1 (some centres unmarked) [PRD 025, 7-p-ethylbenzoyl-7-deacetylpyripyropene A]		
